These results are taken from PubChem BioAssay AID1259411 (Chemical Carcinogenesis Research Information System (CCRIS), 2018).

This series concerns rodent carcinogenicity bioassays, tumor incidence. The experiment in a line: CCRIS carcinogenicity studies. Put shortly: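 Archive of carcinogenicity, mutagenicity, tumor promotion and tumor inhibition results drawn from journals, NCI reports and other sources, expert-reviewed; covers 1985-2011 and is no longer updated.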

Calls of active or inactive are those of the source. No rule for the calls is given here.

For the compound `c1ccc2n[nH]nc2c1`, the carcinogen call runs as follows: (Species: MOUSE, Strain/Sex: B6C3F1/FEMALE, Route: ORAL, Dose: 0, 11700, 23500 PPM IN DIET FOR 104 WK (STUDY DURATION: 106-109 WK), Dose: 0, 11700, 23500 PPM IN DIET FOR 104 WK (STUDY DURATION: 106-109 WK), Tumor Site: Type of Lesion: LUNG: ALVEOLAR/BRONCHIOLAR CARCINOMA) “equivocal”; (Species: MOUSE, Strain/Sex: B6C3F1/MALE, Route: ORAL, Dose: 0, 11700, 23500 PPM IN DIET FOR 104 WK (STUDY DURATION: 106-109 WK), Dose: 0, 11700, 23500 PPM IN DIET FOR 104 WK (STUDY DURATION: 106-109 WK)) “inactive; negative”; (Species: RAT, Strain/Sex: F344/FEMALE, Route: ORAL, Dose: 0, 6700, 12100 PPM IN DIET FOR 78 WK (STUDY DURATION: 105-106 WK), Dose: 0, 6700, 12100 PPM IN DIET FOR 78 WK (STUDY DURATION: 105-106 WK), Tumor Site: Type of Lesion: BRAIN: TUMOR) “equivocal”; (Species: RAT, Strain/Sex: F344/MALE, Route: ORAL, Dose: 0, 6700, 12100 PPM IN DIET FOR 78 WK (STUDY DURATION: 105-106 WK), Dose: 0, 6700, 12100 PPM IN DIET FOR 78 WK (STUDY DURATION: 105-106 WK), Tumor Site: Type of Lesion: BRAIN: TUMOR) “equivocal”.

In the case of `c1ccc2ncccc2c1`, the carcinogen call is “active; positive” (Species: MOUSE, Route: ORAL, Tumor Site: Type of Lesion: LIVER); “inactive; negative” (Species: MOUSE, Strain/Sex: CD-1/FEMALE, Route: INTRAPERITONEAL, Dose: 0, 0.25, 0.5, 1.0 UMOL IN DMSO TO NEWBORN MICE ON DAYS 1, 8 AND 15 OF LIFE RESPECTIVELY (TOTAL DOSE: 1.75 UMOL) (STUDY D, Dose: 0, 0.25, 0.5, 1.0 UMOL IN DMSO TO NEWBORN MICE ON DAYS 1, 8 AND 15 OF LIFE RESPECTIVELY (TOTAL DOSE: 1.75 UMOL) (STUDY D); “inactive; negative” (Species: MOUSE, Strain/Sex: CD-1/FEMALE, Route: INTRAPERITONEAL, Dose: 0, 1.75 UMOL/MOUSE (TOTAL DOSE) ADMINISTERED DURING DAYS 1, 8, AND 15 OF LIFE (STUDY DURATION: 52 WK)); “active; positive” (Species: MOUSE, Strain/Sex: CD-1/MALE, Route: INTRAPERITONEAL, Dose: 0, 0.25, 0.5, 1.0 UMOL IN DMSO TO NEWBORN MICE ON DAY 1,8 AND 15 OF LIFE RESPECTIVELY (TOTAL DOSE: 1,75 UMOL) (STUDY DUR, Dose: 0, 0.25, 0.5, 1.0 UMOL IN DMSO TO NEWBORN MICE ON DAY 1,8 AND 15 OF LIFE RESPECTIVELY (TOTAL DOSE: 1,75 UMOL) (STUDY DUR, Tumor Site: Type of Lesion: LIVER: HEPATOMA, ADENOMA); “active; positive” (Species: MOUSE, Strain/Sex: CD-1/MALE, Route: INTRAPERITONEAL, Dose: 0, 1.75 UMOL/MOUSE (TOTAL DOSE) ADMINISTERED DURING DAYS 1, 8, AND 15 OF LIFE (STUDY DURATION: 52 WK), Tumor Site: Type of Lesion: LIVER: ADENOMA OR CARCINOMA); “active; positive” (Species: RAT, Route: ORAL, Tumor Site: Type of Lesion: LIVER). The carcinogen call is, setting by setting: (Species: RAT, Strain/Sex: SPRAGUE-DAWLEY/FEMALE, Route: SUBCUTANEOUS, Dose: 0, 200 UMOL/KG IN DMSO INTO SUPRASCAPULAR AREA ON DAY 1 OF LIFE FOLLOWED BY 0, 100 UMOL 1/WK AT WK 2-7 THEN 0, 200 UMOL/, Dose: 0, 200 UMOL/KG IN DMSO INTO SUPRASCAPULAR AREA ON DAY 1 OF LIFE FOLLOWED BY 0, 100 UMOL 1/WK AT WK 2-7 THEN 0, 200 UMOL/) “inactive; negative”; (Species: RAT, Strain/Sex: SPRAGUE-DAWLEY/MALE, Route: SUBCUTANEOUS, Dose: 0, 200 UMOL/KG IN DMSO INTO SUPRASCAPULAR AREA ON DAY 1 OF LIFE FOLLOWED BY 0, 100 UMOL 1/WK AT WK 2-7 THEN 0, 200 UMOL/, Dose: 0, 200 UMOL/KG IN DMSO INTO SUPRASCAPULAR AREA ON DAY 1 OF LIFE FOLLOWED BY 0, 100 UMOL 1/WK AT WK 2-7 THEN 0, 200 UMOL/) “inactive; negative”; (Species: RAT, Strain/Sex: WISTAR/MALE, Route: ORAL, Dose: 0, 0.25% IN DIET FOR 4 WK (STUDY DURATION: 20 WK)) “inactive; negative”; (Species: RAT, Strain/Sex: WISTAR/MALE, Route: ORAL, Dose: 0, 0.25% IN DIET FOR 8 WK (STUDY DURATION: 20 WK)) “inactive; negative”; (Species: RAT, Strain/Sex: WISTAR/MALE, Route: ORAL, Dose: 0, 0.25% IN DIET FOR 12 WK (STUDY DURATION: 20 WK), Tumor Site: Type of Lesion: LIVER: HEMANGIOENDOTHELIOMA) “active; positive”; (Species: RAT, Strain/Sex: WISTAR/MALE, Route: ORAL, Dose: 0, 0.25% IN DIET FOR 16 WK (STUDY DURATION: 20 WK), Tumor Site: Type of Lesion: LIVER: HEMANGIOENDOTHELIOMA) “active; positive”. Also, for the setting “Species: RAT, Strain/Sex: WISTAR/MALE, Route: ORAL, Dose: 0, 0.25% IN DIET FOR 20 WK (STUDY DURATION: 20 WK), Tumor Site: Type of Lesion: LIVER: HEMANGIOENDOTHELIOMA”, the carcinogen call was “active; positive”.

Turning to `C/C=C/C=O`, the carcinogen call by setting is: (Species: MOUSE, Strain/Sex: B6C3F1/FEMALE, Route: INTRAPERITONEAL, Dose: 0, 1500 NMOL TOTAL DOSE, 1/3 AND 2/3 OF THE TOTAL DOSE ADMINISTERED AT 8 AND 15 DAYS OF AGE RESPECTIVELY, ANIMALS TERMIN) “inactive; negative”; (Species: MOUSE, Strain/Sex: B6C3F1/FEMALE, Route: INTRAPERITONEAL, Dose: 0, 3000 NMOL TOTAL DOSE, 1/3 AND 2/3 OF THE TOTAL DOSE ADMINISTERED AT 8 AND 15 DAYS OF AGE RESPECTIVELY, ANIMALS TERMIN) “inactive; negative”; (Species: MOUSE, Strain/Sex: B6C3F1/MALE, Route: INTRAPERITONEAL, Dose: 0, 1500 NMOL TOTAL DOSE, 1/3 AND 2/3 OF THE TOTAL DOSE ADMINISTERED AT 8 AND 15 DAYS OF AGE RESPECTIVELY, ANIMALS TERMIN) “inactive; negative”; (Species: MOUSE, Strain/Sex: B6C3F1/MALE, Route: INTRAPERITONEAL, Dose: 0, 3000 NMOL TOTAL DOSE, 1/3 AND 2/3 OF THE TOTAL DOSE ADMINISTERED AT 8 AND 15 DAYS OF AGE RESPECTIVELY, ANIMALS TERMIN) “inactive; negative”.

For `Cc1cc(O)c2c(c1)C(=O)c1cc(O)cc(O)c1C2=O`, the carcinogen call reads like this: (Species: MOUSE, Strain/Sex: B6C3F1/FEMALE, Route: ORAL, Dose: 0, 312, 625, 1250 PPM IN DIET FOR 105 WK (STUDY DURATION: 105 WK), Dose: 0, 312, 625, 1250 PPM IN DIET FOR 105 WK (STUDY DURATION: 105 WK)) “inactive; negative”; (Species: MOUSE, Strain/Sex: B6C3F1/MALE, Route: ORAL, Dose: 0, 160, 312, 625 PPM IN DIET FOR 105 WK (STUDY DURATION: 105 WK), Dose: 0, 160, 312, 625 PPM IN DIET FOR 105 WK (STUDY DURATION: 105 WK), Tumor Site: Type of Lesion: KIDNEY: RENAL TUBULE ADENOMA, RENAL TUBULE CARCINOMA, RENAL TUBULE ADENOMA OR CARCINOMA) “equivocal”; (Species: RAT, Strain/Sex: F344/FEMALE, Route: ORAL, Dose: 0, 280, 830, 2500 PPM IN DIET FOR 105 WK (STUDY DURATION: 105 WK), Dose: 0, 280, 830, 2500 PPM IN DIET FOR 105 WK (STUDY DURATION: 105 WK), Tumor Site: Type of Lesion: ZYMBAL GLAND: CARCINOMA) “equivocal”; (Species: RAT, Strain/Sex: F344/MALE, Route: ORAL, Dose: 0, 280, 830, 2500 PPM IN DIET FOR 105 WK (STUDY DURATION: 105 WK), Dose: 0, 280, 830, 2500 PPM IN DIET FOR 105 WK (STUDY DURATION: 105 WK)) “inactive; negative”.

`C#CCOc1ccc(CCNC(=O)C(OCC#C)c2ccc(Cl)cc2)cc1OC` (centres undefined): the carcinogen call is, setting by setting: (Species: Mouse, Strain/Sex: C57BL/10J CD-1 / Female (50/Group), Route: Oral, Dose: 0, 13.2, 67.8, 284.6 mg/kg/day of 96.5% mandipropamid in diet for 80 wk, study duration 80 wk, Dose: 0, 13.2, 67.8, 284.6 mg/kg/day of 96.5% mandipropamid in diet for 80 wk, study duration 80 wk) “inactive; negative”; (Species: Mouse, Strain/Sex: C57BL/10J CD-1 / Male (50/Group), Route: Oral, Dose: 0, 10.6, 55.2, 222.7 mg/kg/day of 96.5% mandipropamid in diet for 80 wk, study duration 80 wk, Dose: 0, 10.6, 55.2, 222.7 mg/kg/day of 96.5% mandipropamid in diet for 80 wk, study duration 80 wk) “inactive; negative”; (Species: Rat, Strain/Sex: Alpk:AP SD (Wistar-derived)/Female (52/Group), Route: Oral, Dose: 0, 3.5, 17.6, 69.7 mg/kg/day of 96.5% mandipropamid in diet for 104 wk, study duration 104 wk, Dose: 0, 3.5, 17.6, 69.7 mg/kg/day of 96.5% mandipropamid in diet for 104 wk, study duration 104 wk) “inactive; negative”; (Species: Rat, Strain/Sex: Alpk:AP SD (Wistar-derived)/Male (52/Group), Route: Oral, Dose: 0, 3.0, 15.2, 61.3 mg/kg/day of 96.5% mandipropamid in diet for 104 wk, study duration 104 wk, Dose: 0, 3.0, 15.2, 61.3 mg/kg/day of 96.5% mandipropamid in diet for 104 wk, study duration 104 wk) “inactive; negative”.
